# According to ChEMBL document CHEMBL3880421, “Indazole compounds and pharmaceutical compositions for inhibiting protein kinases, and methods for their use” (2003):
# Legend:
# Assay type in all cases: ADME, organism-based
# [1] = Terminal half life in B6 mouse at 25 mg/kg, po by UV-HPLC analysis; settings: B6, mouse, in vivo, read-out: beta t1/2 (converted)
# [2] = Terminal half life in B6 mouse at 25 mg/kg, ip by UV-HPLC analysis; settings: in vivo, read-out: beta t1/2 (converted)
# [3] = Terminal half life in B6 mouse at 50 mg/kg, po by UV-HPLC analysis; settings: B6, mouse, in vivo, read-out: beta t1/2 (converted)
half-life [1] [h],half-life [2] [h],half-life [3] [h],Structure (SMILES)
21,–,–,CCn1nc(C)cc1C(=O)Nc1cccc(Oc2ccc3c(/C=C/c4ccccn4)n[nH]c3c2)c1.Cl
–,1.3,4.5,C=CCONC(=O)c1ccccc1Sc1ccc2c(/C=C/c3ccccn3)n[nH]c2c1
–,3,3,Cc1ccc2cc(NC(=O)c3ccccc3Sc3ccc4c(/C=C/c5ccccn5)n[nH]c4c3)ccc2n1
–,3,3,O=C(Nc1cccc(C(=O)c2ccc3c(-c4nc5ccccc5[nH]4)n[nH]c3c2)c1)c1ccccc1
–,1.2,0.7,C[C@@H]1C[C@H]1C(=O)Nc1cccc(C(=O)c2ccc3c(/C=C/c4ccccn4)n[nH]c3c2)c1 (racemic)
–,5,2,O=C(Nc1cccc(C(=O)c2ccc3c(/C=C/c4ccccn4)n[nH]c3c2)c1)c1ccccc1
–,3.2,0.9,CCNC(=O)c1ccccc1Sc1ccc2c(/C=C/c3ccccn3)n[nH]c2c1
–,19.9,3.4,O=C(Nc1cc(Nc2ccc3c(/C=C/c4ccccc4)n[nH]c3c2)ccc1F)c1ccccc1
–,1.7,1,Cc1cc(C(=O)Nc2cccc(Oc3ccc4c(/C=C/c5ccccn5)n[nH]c4c3)c2)nn1C
–,3.8,3.6,O=C(NCc1ccccc1F)c1ccccc1Sc1ccc2c(/C=C/c3ccccn3)n[nH]c2c1
–,4,3.4,CCn1nc(C)cc1C(=O)Nc1cc(C(=O)c2ccc3c(/C=C/c4ccccn4)n[nH]c3c2)ccc1C
–,0.9,1,O=C(NCC1CC1)c1ccccc1Sc1ccc2c(/C=C/c3ccccn3)n[nH]c2c1
–,0.3,0.7,Cc1cc(C(=O)Nc2cccc(C(=O)c3ccc4c(/C=C/c5ccccn5)n[nH]c4c3)c2)n[nH]1
–,2.2,2.2,O=C(c1cccc(NC(=O)c2ccccn2)c1)c1ccc2c(/C=C/c3ccccc3)n[nH]c2c1
14.6,1.5,–,C=C(C)CNC(=O)c1ccccc1Sc1ccc2c(/C=C/c3ccccn3)n[nH]c2c1
–,0.8,0.8,CC(C)NC(=O)c1ccccc1Sc1ccc2c(/C=C/c3ccccn3)n[nH]c2c1
–,2.4,0.7,O=C(NCC(F)(F)F)c1ccccc1Sc1ccc2c(/C=C/c3ccccn3)n[nH]c2c1
–,3.2,4.9,O=C(NC1CCC1)c1ccccc1Sc1ccc2c(/C=C/c3ccccn3)n[nH]c2c1
–,2.8,1.5,O=C(c1cccc(NC(=O)c2cccc3[nH]ccc23)c1)c1ccc2c(/C=C/c3ccccn3)n[nH]c2c1
–,1.6,0.9,O=C(Nc1cccc(Cl)c1)c1ccccc1Sc1ccc2c(/C=C/c3ccccn3)n[nH]c2c1
–,1.4,0.9,CCCNC(=O)c1ccccc1Sc1ccc2c(/C=C/c3ccccn3)n[nH]c2c1

Structure (SMILES),half-life [1] [h],half-life [2] [h],half-life [3] [h]
O=C(Nc1ccccc1)c1ccccc1Sc1ccc2c(/C=C/c3ccccn3)n[nH]c2c1,–,1.2,3
Cn1cccc1C(=O)NNC(=O)c1ccccc1Sc1ccc2c(/C=C/c3ccccn3)n[nH]c2c1,–,1.8,0.9
O=C(Nc1cccc(C(=O)c2ccc3c(/C=C/c4ccccc4)n[nH]c3c2)c1)c1ccncc1,–,1.6,1.2
CC(=O)c1ccc(C(=O)Nc2cccc(C(=O)c3ccc4c(/C=C/c5ccccn5)n[nH]c4c3)c2)s1,–,1.6,1.6
O=C(Nc1cccc(C(=O)c2ccc3c(/C=N/n4cccc4)n[nH]c3c2)c1)c1ccccc1,–,2,3
O=C(NC1CC1)c1ccccc1Sc1ccc2c(/C=C/c3ccccn3)n[nH]c2c1,–,1,0.7
